The structures appear in SMILES notation. Counter-ions that a name gives are not always drawn.

T1 sequence (Q92633 whole entry): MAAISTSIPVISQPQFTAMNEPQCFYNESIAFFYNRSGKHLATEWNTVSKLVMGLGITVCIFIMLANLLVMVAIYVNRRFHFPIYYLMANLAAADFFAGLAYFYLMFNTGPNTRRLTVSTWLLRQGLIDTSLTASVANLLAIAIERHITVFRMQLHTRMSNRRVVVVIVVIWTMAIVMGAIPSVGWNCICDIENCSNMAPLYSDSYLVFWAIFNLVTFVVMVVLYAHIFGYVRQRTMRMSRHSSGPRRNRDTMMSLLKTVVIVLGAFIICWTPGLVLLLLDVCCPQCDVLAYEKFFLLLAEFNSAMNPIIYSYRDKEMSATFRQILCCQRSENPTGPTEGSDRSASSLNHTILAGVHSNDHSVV

The first assay concerns the target T1, human LPA1 (Homo sapiens, UniProt Q92633).
T1 construct: expressed in transfected cells; host or cells: Chinese hamster ovary (CHO) cells
The assay is described as follows: LPA1 functional antagonist assay (LPA-induced calcium flux in CHO cells overexpressing human LPA1). In kind it is cell-based. As to conditions: inhibition of calcium flux induced by 10 nM LPA, CHO cells overexpressing human LPA1; read-out: hLPA1 IC50. How it is done:
The effectiveness of compounds of the present invention as LPA1 inhibitors can be determined in an LPA1 functional antagonist assay as follows:
Chinese hamster ovary cells overexpressing human LPA1 were plated overnight (15,000 cells/well) in poly-D-lysine coated 384-well microplates (Greiner bio-one, Cat #781946) in DMEM/F12 medium (Gibco, Cat #11039). Following overnight culture, cells were loaded with calcium indicator dye (AAT Bioquest Inc, Cat #34601) for 30 minutes at 37° C. The cells were then equilibrated to room temperature for 30 minutes before the assay. Test compounds solubilized in DMSO were transferred to 384 well non-binding surface plates (Corning, Cat #3575) using the Labcyte Echo acoustic dispense and diluted with assay buffer [IX HBSS with calcium/magnesium (Gibco Cat #14025-092), 20 mM HEPES (Gibco Cat #15630-080) and 0.1% fatty acid free BSA (Sigma Cat #A9205)] to a final concentration of 0.5% DMSO. Diluted compounds were added to the cells by FDSS6000 (Hamamatsu) at final concentrations ranging from 0.08 nM to 5 μM. and were then incubated for 20 min at room temperature at which time LPA (Avanti Polar Lipids Cat #857130C) was added at final concentrations of 10 nM to stimulate the cells. The compound IC50 value was defined as the concentration of test compound which inhibited 50% of the calcium flux induced by LPA alone. IC50 values were determined by fitting data to a 4-parameter logistic equation (GraphPad Prism, San Diego Calif.).
In general, IC50 refers to the concentration that gives 50% inhibition. As to `Cc1nc(-c2nnn(C)c2Cn2cc(CC(C)C)nn2)ccc1O[C@H]1CCC[C@H](C(=O)O)C1` [Example 262, (1S,3S)-3-((6-(5-((4-isobutyl-1H-1,2,3-triazol-1-yl)methyl)-1-methyl-1H-1,2,3-triazol-4-yl)-2-methylpyridin-3-yl)oxy)cyclohexane-1-carboxylic acid], the concentration for half-maximal inhibition (IC50) worked out at 0.086 µM.
On the same count and under the same terms, the figure for `Cc1nc(-c2nnn(C)c2CNc2cnn(CC3CCC3)n2)ccc1O[C@H]1CCC[C@H](C(=O)O)C1` [Example 24, (1 S,3 S)-3-((6-(5-(((2-(cyclobutylmethyl)-2H-1,2,3-triazol-4-yl)amino)methyl)-1-methyl-1H-1,2,3-triazol-4-yl)-2-methylpyridin-3-yl)oxy)cyclohexane-1-carboxylic acid] is 0.033 µM; for `CSc1nnnn1Cc1c(-c2ccc(O[C@H]3CCC[C@H](C(=O)O)C3)c(C)n2)nnn1C` [Example 352, (1S,3S)-3-{[2-methyl-6-(1-methyl-5-{[5-(methylsulfanyl)-1H-1,2,3,4-tetrazol-1-yl]methyl}-1H-1,2,3-triazol-4-yl)pyridin-3-yl]oxy}cyclohexane-1-carboxylic acid] it is 0.58 µM.
In the case of `CC(C)CCc1nc(NCc2c(-c3ccc(O[C@H]4CCC[C@H](C(=O)O)C4)cn3)nnn2C)no1` [Example 285, (1 S,3 S)-3-((6-(5-(((5-isopentyl-1,2,4-oxadiazol-3-yl)amino)methyl)-1-methyl-1H-1,2,3-triazol-4-yl)pyridin-3-yl)oxy)cyclohexane-1-carboxylic acid], the IC50 came out at 0.093 µM.
The same measure, in the same setting: the figure for `Cc1nc(-c2nnn(C)c2COc2nc(C3CC3)ns2)ccc1O[C@H]1CCC[C@H](C(=O)O)C1` [Example 116, (1S,3S)-3-((6-(5-(((3-cyclopropyl-1,2,4-thiadiazol-5-yl)oxy)methyl)-1-methyl-1H-1,2,3-triazol-4-yl)-2-methylpyridin-3-yl)oxy)cyclohexane-1-carboxylic acid] is 0.405 µM.
Regarding `COc1cccc(Cc2nnn(Cc3c(-c4ccc(O[C@H]5CCC[C@H](C(=O)O)C5)c(C)n4)nnn3C)n2)c1` [Example 314, (1S,3S)-3-({6-[5-({5-[(3-methoxy-phenyl)methyl]-2H-1,2,3,4-tetrazol-2-yl}methyl)-1-methyl-1H-1,2,3-triazol-4-yl]-2-methylpyridin-3-yl}oxy)cyclohexane-1-carboxylic acid], the IC50 was 0.012 µM.
Same read-out and setting: then `Cc1nc(-c2nnn(C)c2CNc2nc(-c3ccccc3)ns2)ccc1O[C@H]1CCC[C@H](C(=O)O)C1` [Example 9], with 0.038 µM; and `Cc1nc(-c2nnn(C)c2Nc2noc(CC3CC3)n2)ccc1O[C@H]1CCC[C@H](C(=O)O)C1` [Example 277, (1S,3S)-3-{[6-(5-{[5-(Cyclo-propylmethyl)-1,2,4-oxadiazol-3-yl]amino}-1-methyl-1H-1,2,3-triazol-4-yl)-2-methylpyridin-3-yl]oxy}cyclohexane-1-carboxylic acid, bis TFA salt], with 0.033 µM; and `Cc1nc(-c2nnn(C)c2CNc2nc(C(C)(C)C)no2)ccc1O[C@H]1CCC[C@H](C(=O)O)C1` [Example 60], with 0.478 µM.
Regarding `Cc1nc(-c2nnn(C)c2CNc2noc(CCC(C)F)n2)ccc1O[C@H]1CCC[C@H](C(=O)O)C1` (stereo partly drawn) [Example 200], the 50% inhibitory concentration (IC50) was 0.031 µM.
Same read-out and setting: the figure for `Cc1nc(-c2nnn(C)c2CNc2noc(C3CCOC3)n2)ccc1O[C@H]1CCC[C@H](C(=O)O)C1` (stereo partly drawn) [Example 151] is 0.114 µM; for `Cc1nc(-c2nnn(C)c2COc2cc(-c3ccccn3)on2)ccc1O[C@H]1CCC[C@H](C(=O)O)C1` [Example 133] it is 0.208 µM; for `CCCCc1nc(Cc2c(-c3ccc(O[C@H]4CCC[C@H](C(=O)O)C4)c(C)n3)nnn2C)no1` [Example 233, (1S,3S)-3-((6-(5-((5-butyl-1,2,4-oxadiazol-3-yl)methyl)-1-methyl-1H-1,2,3-triazol-4-yl)-2-methylpyridin-3-yl)oxy)cyclohexane-1-carboxylic acid] it is 0.008 µM.
Consider `Cc1nc(-c2nnn(C)c2CNc2noc(CCC(C)C)n2)c(F)cc1O[C@H]1CCC[C@H](C(=O)O)C1` [Example 281, (1S,3S)-3-((5-fluoro-6-(5-(((5-isopentyl-1,2,4-oxadiazol-3-yl)amino)methyl)-1-methyl-1H-1,2,3-triazol-4-yl)-2-methylpyridin-3-yl)oxy)cyclohexane-1-carboxylic acid], for which the concentration for half-maximal inhibition (IC50) turned out to be 0.067 µM.
On to `COc1cccc(Cc2nnnn2Cc2c(-c3ccc(O[C@H]4CCC[C@H](C(=O)O)C4)c(C)n3)nnn2C)c1` [Example 313, (1S,3S)-3-({6-[5-({5-[(3-methoxy-phenyl)methyl]-1H-1,2,3,4-tetrazol-1-yl}methyl)-1-methyl-1H-1,2,3-triazol-4-yl]-2-methylpyridin-3-yl}oxy)cyclohexane-1-carboxylic acid], for which the IC50 stood at 0.277 µM.
The same measure, in the same setting: the figure for `Cc1nc(-c2nnn(C)c2CNc2cc(C3CC3)nn2C)ccc1O[C@H]1CCC[C@H](C(=O)O)C1` [Example 123] is 1.29 µM; for `Cc1nc(-c2nnn(C)c2CNc2noc(C3CCC3)n2)ccc1O[C@H]1CCC[C@H](C(=O)O)C1` [Example 175] it is 0.02 µM.
Regarding `Cn1nnc(-c2ccc(O[C@H]3CCC[C@H](C(=O)O)C3)cn2)c1CNc1noc(CC2CCC2)n1` [Example 288, (1S,3S)-3-((6-(5-(((5-(cyclobutylmethyl)-1,2,4-oxadiazol-3-yl)amino)methyl)-1-methyl-1H-1,2,3-triazol-4-yl)pyridin-3-yl)oxy)cyclohexane-1-carboxylic acid], the IC50 is 0.0341 µM.
Same read-out and setting: the figure for `CCCCc1nc(NCc2c(-c3ccc(O[C@H]4CCC[C@H](C(=O)O)C4)c(C)n3)nnn2C)no1` [Example 66] is 0.015 µM; for `Cc1nc(-c2nnn(C)c2CNc2noc(CCC(C)F)n2)ccc1O[C@H]1CCC[C@H](C(=O)O)C1` (stereo partly drawn) [Example 167] it is 0.016 µM; for `Cc1nc(-c2nnn(C)c2CNc2noc(COC3CC3)n2)ccc1O[C@H]1CCC[C@H](C(=O)O)C1` [Example 212, (1 S,3 S)-3-((6-(5-(((5-(cyclopropoxymethyl)-1,2,4-oxadiazol-3-yl)amino)methyl)-1-methyl-1H-1,2,3-triazol-4-yl)-2-methylpyridin-3-yl)oxy)cyclohexane-1-carboxylic acid] it is 0.034 µM.
Still for that read-out and setting: then `Cc1nc(-c2nnn(C)c2COc2nnn(CC(C)C)n2)ccc1O[C@H]1CCC[C@H](C(=O)O)C1` [Example 136, (1S,3S)-3-((6-(5-(((2-Isobutyl-2H-tetrazol-5-yl)oxy)methyl)-1-methyl-1H-1,2,3-triazol-4-yl)-2-methylpyridin-3-yl)oxy)cyclohexane-1-carboxylic acid], with 0.02 µM.

The assay is the same for the next values; noted with them: read-out: hLPA1 IC50.
With `Cc1nc(-c2nnn(C)c2Cn2nnc(N(C)CC3CC3)n2)ccc1O[C@H]1CCC[C@H](C(=O)O)C1` [Example 408, (1S,3S)-3-({6-(5-({5-[(cyclopropylmethyl)(methyl)amino]-2H-1,2,3,4-tetrazol-2-yl}methyl)-1-methyl-1H-1,2,3-triazol-4-yl]-2-methylpyridin-3-yl}oxy)cyclohexane-1-carboxylic acid], the IC50 is 0.339 µM.
In the case of `CCCCCc1cn(Cc2c(-c3ccc(O[C@H]4CCC[C@H](C(=O)O)C4)c(CC)n3)nnn2C)nn1` [Example 375, (1S,3S)-3-((2-ethyl-6-(1-methyl-5-((4-pentyl-1H-1,2,3-triazol-1-yl)methyl)-1H-1,2,3-triazol-4-yl)pyridin-3-yl)oxy)cyclohexane-1-carboxylic acid], the IC50 was 0.585 µM.

Values taken from patent publication US11319315B2, “Cyclohexyl acid triazole azoles as LPA antagonists” (BRISTOL-MYERS SQUIBB COMPANY, priority 2017, dated 2022).
